Test results reported in patent publication US8242167B2, “Mannose derivatives for killing tumor cells” (University of Miami, priority 2006, dated 2012).

Columns and labels:
[1] = test system: SKBR3 cells; experiment: Growth inhibitory and cytotoxicity assay in SKBR3 cells under normoxia; format: cell-based, human; conditions: for cytotoxicity measured by trypan blue exclusion: SKBR3, 72 hrs, normal oxygen conditions; for reversal of 2-DG toxicity by added sugar: SKBR3, 1 mM sugar with increasing 2-DG, trypan blue exclusion
Description: Cytotoxicity assay and Rapid DNA Content Analysis. Cells were incubated for 24 hr at 37° C. in 5% CO2 at which time drug treatments began and were continued for 72 hr. At this time, attached cells were trypsinized and combined with their respective culture media followed by centrifugation at 400 g for 5 min. Pellets containing the cells were either resuspended in 1.5 ml of a medium/trypan blue mixture for cytotoxicity assays or propidium iodide/hypotonic citrate staining solution for determining the nuclear DNA content and cell cycle by a Coulter XL flow cytometer. A minimum of 10,000 cells were analyzed to generate a DNA distribution histogram.
(§1) Cytotoxicity assay. Cells were incubated for 24 hr at 37° C. in 5% CO2 at which time drug treatments began and continued for 72 hr. At this time, attached cells were trypsinized and combined with their respective culture media followed by centrifugation at 400 g for 5 min. The pellets were resuspended in 1 ml of Hanks solution and analyzed by Vi-Cell (Beckman Coulter, USA) cell viability analyzer.

[2] = test system: 1420, pancreatic cancer; experiment: Cytotoxicity under normoxia, 1420; format: cell-based, human; conditions: 1420; 1 mM sugar with increasing 2-DG; trypan blue exclusion
Description: (§2) Cell types. The Δ^0 cells were isolated by treating osteosarcoma cell line 143B (wt) with ethidium bromide for prolonged periods, as previously described (9). Because the Δ^0 cells are uridine and pyruvate auxotrophs, they were grown in DMEM (GIBCO, USA) supplemented with 10% fetal calf serum, 50 μg/ml of uridine and 100 mM sodium pyruvate. The SKBR3 cell line was obtained from Dr. Joseph Rosenblatt's laboratory at the University of Miami. The pancreatic cancer cell lines 1420 and 1469, the ovarian cancer cell line SKOV3, the cervical cancer cell line HELA, and the osteosarcoma cell line 143B were purchased from ATCC. The non-small cell lung cancer and small cell lung cancer cell lines were derived from patients by Dr. Niramol Savaraj at the University of Miami. SKBR3 and SKOV3 cells were grown in McCoy's 5A medium; 1420, 1469 and 143B were grown in DMEM (GIBCO, USA); and HELA was grown in MEM (GIBCO, USA). The media was supplemented with 10% fetal bovine serum. All cells were grown under 5% CO2 and 37° C.
as §1

[3] = test system: glycoproteins (ConA binding) in SKBR3 cells; experiment: HRP-conjugated ConA blot of SKBR3 cell extracts; format: cell-based, human; conditions: SKBR3, 48 hr, 8 mM sugar analog
Description: (§3) Western Blot analysis. Cells were plated at 10^4 cell cm^−2 and grown under drug treatment for the indicated times. At the end of the treatment period, cells were collected and lysed with 1% SDS in 80 mM Tris-HCL (ph 7.4) buffer supplemented with a proteinase inhibitor cocktail. DNA was fragmented by sonication and protein concentrations were measured by microBCA protein assay kit (Pierce, USA). Samples were mixed with 2× Laemmli sample buffer (Bio-Rad, USA) and run on a SDS-polyacrylamide gel. Gels were transferred to nitrocellulose membranes (Amersham, USA) and probed with anti-KDEL (Stressgen, Canada) (for Grp78 and Grp94); polyclonal anti-CHOP/[…] (Santa Cruz, USA), polyclonal anti-erbB2 (DAKO, USA). Following probing, membranes were washed and incubated with an HRP conjugated secondary antibody. Chemiluminesence was detected by exposure to film. Where indicated, membranes were stripped with Stripping Buffer (Pierce, USA) and reprobed with anti-actin (Sigma, USA) primary antibody. To analyze conconavalin A (ConA) binding, the membranes were incubated with 0.2 μg/ml HRP-conjugated ConA, and chemiluminescence was detected as described.

[4] = test system: Grp78 and Grp94; experiment: Western blot of Grp78 and Grp94 (unfolded protein response) in SKBR3 cells under normoxia; format: cell-based, human; conditions: for expression of chaperones Grp78 and Grp94: SKBR3, normoxia, 24 hrs, 8 mM sugar analog, tunicamycin 1 micro g/ml; for up-regulation of GRP 78 and 94, dose dependence: select tumor cells, normoxic conditions
Description: as §3

[5] = test system: Grp78 and Grp94; experiment: Western blot of Grp78 and Grp94 in models of hypoxia A, B & C; format: cell-based
Description: as §3
Three in vitro models of hypoxia. We previously characterized three models of anaerobiosis as follows: Model A are tumor cells treated with 0.05 μg/ml of oligomycin (a mitochondrial inhibitor of ATP synthase); Model B are cells that are deficient in mitochondrial DNA and Model C are cells treated in an hypoxic (0.5% O^2) chamber (Reming Bioinstruments, Redfield, N.Y.).

[6] = test system: CHOP/GADD154; experiment: Western blot of CHOP/GADD154 in SKBR3 cells; format: cell-based, human; conditions: SKBR3, normoxia, 24 hrs; 8 mM sugar analog
Description: as §3

[7] = test system: tumor cell lines; experiment: Toxicity survey of tumor cell lines under normoxic conditions; format: cell-based; conditions: for toxicity to select tumor cell types: normoxia; for tumor cell lines undergoing significant cell death: 6 mM, normal oxygen tension
Description: as §2, §1

[8] = test system: SKBR3 cells; experiment: Lactic acid assay in SKBR3 cells; format: cell-based, human; conditions: 2 mM, 24 hr, 2-FDG vs. 2-DG
Description: Lactic acid assay. Lactic acid was measured by adding 0.025 ml of deproteinated medium, from treated or non-treated cultures, to a reaction mixture containing 0.1 ml of lactic acid dehydrogenase (1000 units/ml), 2 ml of glycine buffer (glycine, 0.6 mol/L, and hydrazine, pH 9.2), and 1.66 mg/ml NAD. Deproteinization occurred by treating 0.5 ml of medium from test cultures with 1 ml of perchloric acid at 8% w/v, vortexing for 30 s, then incubating this mixture at 4° C. for 5 min, and centrifuging at 1500 g for 10 min. The supernatant was centrifuged three times more, and 0.025 ml of a final clear supernatant was used for lactic acid determinations. Formation of NADH was measured with a Beckman DUr 520 UV/vis spectrophotometer at 340 nm, which directly corresponds to lactic acid levels as determined by a lactate standard curve.
Lactic acid assay. Lactic acid was measured by adding 0.025 ml of deproteinated medium, from treated or non-treated cultures, to a reaction mixture containing 0.1 ml of lactic dehydrogenase (1000 units/ml), 2 ml of glycine buffer (glycine, 0.6 mol/L, and hydrazine, pH 9.2), and 1.66 mg/ml NAD. […] Formation of NADH was measured with a Beckman DUr 520 UV/vis spectrophotometer at 340 nm, which directly corresponds to lactic acid levels as determined by a lactate standard curve.

[9] = test system: SKBR3 cells; experiment: ATP quantification assay in SKBR3 cells; format: cell-based, human; conditions: 6 hours, 2-FDG vs. 2-DG
Description: ATP quantitation assay. The ATP lite kit (Perkin Elmer) can be used to quantify levels of ATP. About 50 μL of cell lysis solution were added to 100 μL of cell suspension in a white-bottom 96-well plate. The plate was incubated at room temperature on a shaker (700 rpm) for five minutes. 50 μL of substrate solution was then added to the wells and shaken (700 rpm) for another five minutes at room temperature. The plate was then dark adapted for ten minutes and measured for luminescence.
ATP quantification assay. The ATP lite kit (Perkin Elmer) can be used to quantify levels of ATP. About […] of cell lysis solution were added to […] of cell suspension in a white-bottom 96-well plate. The plate was incubated at room temperature on a shaker (700 rpm) for five minutes. About […] solution were then added to the wells and shaken (700 rpm) for another five minutes at room temperature. The plate was then dark adapted for ten minutes and measured for luminescence. To normalize the reduction of ATP production to growth inhibition which results due to treatment with 2-DG or 2-FDG, parallel experiments were run to measure the total protein concentration using a microBCA protein detection kit (Pierce, Rockford, Ill.).

[10] = test system: SKBR3 cells; experiment: Cytotoxicity in SKBR3 cells under hypoxic conditions; format: cell-based, human; conditions: 2-FDG vs. 2-DG
Description: as §1, with “Hypoxia. For studies in hypoxic conditions (Model C), cells were seeded and incubated for 24 hr at 37° C. and 5% CO2 as described below for direct cytotoxicity assays. After the 24 hr incubation, cells received drug treatment and were placed in a Pro-Ox in vitro chamber attached to a model 110 oxygen controller ([…] Bioinstruments Co. […] Cytotoxicity” for “Cytotoxicity”

[11] = test system: erbB2; experiment: Western blot of erbB2 in SKBR3 cells; format: cell-based, human
Description: as §3

[12] = test system: fowl plague virus; conditions: chick embryo fibroblasts infected with fowl plague virus; cited from earlier work

In the case of `NC(=O)C(=O)O` [oxamate, reference compound], the “cytotoxicity measured by trypan blue exclusion” value (shortened to “cytotoxicity measured”) [1] is reported as “not toxic”.
For `O=C(CO)[C@@H](O)[C@H](O)[C@H](O)CO` [fructose, reference compound], the “reversal of 2-DG toxicity by added sugar” value [1] was “had no effect” and the “reversal of 2-DG toxicity by added sugar” value [2] was “had no effect”.
In the case of tunicamycin [reference compound], the “ConA binding of glycoproteins” value [3] is reported as “decrease ConA binding”, the “expression of chaperones Grp78 and Grp94” value [4] is reported as “both Grp78 and Grp94 are upregulated” and the “synthesis of chaperones Grp78 and Grp94” value ([5]; all three hypoxia models (positive control)) is reported as “induce the synthesis of these chaperones in all three models”. For the same compound, the “induction of GADD154/CHOP” value [6] was “induced”.
With `O=C[C@@H](Cl)[C@@H](O)[C@H](O)[C@H](O)CO` [2-CM, 2-deoxy-2-chloro-mannose] the “toxicity to select tumor cell types” value [7] was “toxic to select tumor cell types growing under normoxia”.
With `O=C[C@H](F)[C@@H](O)[C@H](O)[C@H](O)CO` [2-FDG, 2-deoxy-2-fluoro-glucose, reference compound] the “cytotoxicity measured” value [1] was “is not”, the “rank order in growth inhibiting and killing SKBR3 cells” value ([1]; normoxia) was 2-DG>2-FDM>>>2-FDG and the “toxicity to SKBR3 cells grown under normoxia (FIG. 1)” value ([1]; normoxia) was “neither of these agents caused toxicity”. The “inhibition of lactate levels (a measure of glycolysis)” value [8] was “inhibited lactate levels (a measure of glycolysis) better than the latter”, the ATP depletion [9] was “ATP depletion was more prominent” and the “toxicity under hypoxic conditions” value [10] was “more toxic than 2-DG”. The “ConA binding of glycoproteins” value [3] was “no reduction in ConA binding”, the “molecular weight of erbB2” value [11] was “had no effect” and the “expression of chaperones Grp78 and Grp94” value [4] was “does not increase the levels of these chaperones as much as 2-DG or 2-FDM”. The “up-regulation of GRP 78 and 94, dose dependence” value [4] was “not”, the “induction of GADD154/CHOP” value [6] was “not” and the “tumor cell lines undergoing significant cell death” value [7] was “not”. The “toxicity to select tumor cell types” value [7] was “not”, the “toxicity to cell types that are sensitive to 2-DG” value ([7]; normoxic conditions) was “shows no toxicity” and the “order of potency to inhibit viral glycoprotein synthesis” value [12] was 2-DG>2-FDM>2-FDG.
With `C[C@H](O)[C@@H](O)[C@@H](O)[C@H](O)C=O` [fucose, reference compound] the “reversal of 2-DG toxicity by added sugar” value [1] was “had no effect” and the “reversal of 2-DG toxicity by added sugar” value [2] was “had no effect”.
For `O=C[C@@H](F)[C@@H](O)[C@H](O)[C@H](O)CO` [2-FDM, 2-deoxy-2-fluoro-mannose], the “cytotoxicity measured” value [1] was “toxic”, the “rank order in growth inhibiting and killing SKBR3 cells” value ([1]; normoxia) was 2-DG>2-FDM>>>2-FDG and the “ConA binding of glycoproteins” value [3] was “decrease ConA binding”. The “molecular weight of erbB2” value [11] was “decreased the molecular weight of erbB2”, the “expression of chaperones Grp78 and Grp94” value [4] was “both Grp78 and Grp94 are upregulated” and the “up-regulation of GRP 78 and 94, dose dependence” value [4] was “up-regulated by 2-DG and 2-FM in a dose-dependent manner”. The “upregulation of the UPR (Grp78, Grp94)” value ([5]; hypoxia model C) was “both chaperones are upregulated”, the “upregulation of the UPR (Grp78, Grp94)” value ([5]; hypoxia models A and B) was “no significant upregulation of the UPR” and the “induction of GADD154/CHOP” value [6] was “induced”. For the same compound, the “toxicity in 2-DG sensitive and 2-DG resistant cell types” value ([7]; 4 mM) was “caused toxicity in 2-DG sensitive but not 2-DG resistant cell types”, the “tumor cell lines undergoing significant cell death” value [7] was 6 out of 15 and the “toxicity to select tumor cell types” value [7] was “toxic to select tumor cell types growing under normoxia”. The “order of potency to inhibit viral glycoprotein synthesis” value [12] was 2-DG>2-FDM>2-FDG.
